Tests used:
Experiment in all cases: relative viability (nuclei count vs DMSO), 5 days (fraction); higher = more cells survive
[1] = compound: C1COCCN1C2=NC(=NC3=C2OC4=C3C=CC=N4)C5=CC(=CC=C5)NC(=O)C6=CN=C(C=C6)N + CS(=O)(=O)CCNCc1ccc(-c2ccc3ncnc(Nc4ccc(OCc5cccc(F)c5)c(Cl)c4)c3c2)o1 [Lapatinib] (partner 2 µM)
How it was run: (§1)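 Nuclei were stained with Hoechst during a one-step fixation (final 0.05% Triton X-100, 1% formaldehyde, 1 ug/ml Hoechst) carried out 5 days after dosing, then counted on 4× images. The cells, lung cancer lines in 1536-well plates, had been dosed by pin tool the day after seeding with one drug alone or a fixed anchor-drug dose plus five library-drug doses (not always all listed) in √10 steps. Relative viability is the nuclei count in treated wells divided by that in vehicle wells, and each value is the median of duplicate plates.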

[2] = compound: C1COCCN1C2=NC(=NC3=C2OC4=C3C=CC=N4)C5=CC(=CC=C5)NC(=O)C6=CN=C(C=C6)N + CS(=O)(=O)N1CCN(Cc2cc3nc(-c4cccc5[nH]ncc45)nc(N4CCOCC4)c3s2)CC1 [Pictilisib] (partner 1 µM)
How it was run: as §1

Entinostat + Pictilisib = compound: Nc1ccccc1NC(=O)c1ccc(CNC(=O)OCc2cccnc2)cc1 [Entinostat] + CS(=O)(=O)N1CCN(Cc2cc3nc(-c4cccc5[nH]ncc45)nc(N4CCOCC4)c3s2)CC1 [Pictilisib] (partner 1 µM)
How it was run: as §1

Entinostat + Decitabine = compound: Nc1ccccc1NC(=O)c1ccc(CNC(=O)OCc2cccnc2)cc1 [Entinostat] + Nc1ncn([C@H]2C[C@H](O)[C@@H](CO)O2)c(=O)n1 [Decitabine] (partner 2 µM)
How it was run: as §1

Cell Line	relative viability ([1]; first compound 0.02 µM)	relative viability ([1]; first compound 0.06325 µM)	relative viability ([1]; first compound 0.2 µM)	relative viability ([1]; first compound 0.6325 µM)	relative viability ([1]; first compound 2 µM)	relative viability ([2]; first compound 0.02 µM)	relative viability ([2]; first compound 0.06325 µM)	relative viability ([2]; first compound 0.2 µM)	relative viability ([2]; first compound 0.6325 µM)	relative viability ([2]; first compound 2 µM)	relative viability (Entinostat + Pictilisib; first compound 0.02 µM)	relative viability (Entinostat + Pictilisib; first compound 0.06325 µM)	relative viability (Entinostat + Pictilisib; first compound 0.2 µM)	relative viability (Entinostat + Pictilisib; first compound 0.6325 µM)	relative viability (Entinostat + Pictilisib; first compound 2 µM)	relative viability (Entinostat + Decitabine; first compound 0.02 µM)	relative viability (Entinostat + Decitabine; first compound 0.06325 µM)	relative viability (Entinostat + Decitabine; first compound 0.2 µM)	relative viability (Entinostat + Decitabine; first compound 0.6325 µM)	relative viability (Entinostat + Decitabine; first compound 2 µM)
HCC-44	1.1	1.07	1.09	1.06	0.631	0.508	0.607	0.65	0.506	0.399	0.641	0.644	0.392	0.176	0.417	0.997	0.841	0.938	0.721	0.611
HCC-78	0.671	0.792	0.767	0.762	0.72	0.179	0.211	0.289	0.16	0.0668	0.212	0.194	0.178	0.108	0.128	0.823	0.726	0.595	0.594	0.371
HCC-366	1.35	1.04	0.95	1.03	0.453	0.0246	0.144	0.107	0.107	0.204	0.163	0.232	0.168	0.194	0.082	0.312	0.315	0.168	0.155	0.0591
HCC-827	0.172	0.214	0.254	0.186	0.21	0.99	1.1	1.12	0.986	0.935	1.02	0.774	0.683	0.754	0.478	0.318	0.338	0.315	0.223	0.226
HOP-62	0.945	1.42	1.06	0.925	0.531	0.792	0.82	0.698	0.876	0.499	0.578	0.743	0.603	0.139	0.0745	0.272	0.248	0.248	0.213	0.132
IA-LM	0.848	0.67	0.621	0.588	0.276	–	0.301	0.319	0.353	0.182	0.391	0.43	0.508	0.311	0.133	–	–	–	–	–
LC-2-ad	0.948	0.939	0.968	1.03	0.537	0.441	0.51	0.526	0.443	0.487	0.44	0.5	0.431	0.126	0.124	0.833	0.74	0.642	0.611	0.438
LCLC-97TM1	–	1.25	1.15	0.892	0.761	–	0.173	0.217	0.235	0.184	0.196	0.193	0.166	0.104	0.122	0.23	0.213	0.314	0.163	0.16
LCLC-103H	–	–	–	–	–	0.533	0.647	0.555	0.678	0.551	0.611	0.603	0.636	0.452	0.479	0.714	0.72	0.757	0.488	0.472

Source: the supplement of paper PMC10307832
